Laboratory results published in ChEMBL document CHEMBL1148115, “Malevamide D: isolation and structure determination of an isodolastatin H analogue from the marine cyanobacterium Symploca hydnoides” (J Nat Prod, 2002).

What was measured:
Format in all cases: functional, cell-based
P388 = assay: Cytotoxicity against mouse P388 cells
A549 = assay: Cytotoxicity against human A549 cells
HT-29 = assay: Cytotoxicity against human HT-29 cells
SK-MEL-28 = assay: Cytotoxicity against human SK-MEL-28 cells

Question: For `CC[C@H](C)[C@@H](C(=O)N[C@H](C(=O)N(C)[C@@H](C(C)C)[C@@H](CC(=O)N1CCC[C@H]1[C@H](OC)[C@@H](C)C(=O)O[C@H](CO)Cc1ccccc1)OC)C(C)C)N(C)C` [MALEVAMIDE D], which IC50 (P388) is on record?
Answer: 0.3 nM

Question: What about the IC50 (A549) of the same compound?
Answer: 0.3 nM

Question: What about the IC50 (HT-29) of the same compound?
Answer: 0.3 nM

Question: What about the IC50 (SK-MEL-28) of the same compound?
Answer: 0.7 nM
